Values quoted from earlier work as cited in patent US20080011293A1, “Stable Xylometazoline and Oxymetazoline Solution” (priority 1999, published 2008).
Like-named read-outs stand apart in the source and are kept apart here.

Test system: Pseudomonas aeruginosa

Row | SMILES | concentration above which the inhibitory effect sets in (pH of 5.6 adjusted using HCl and NaOH) | concentration above which the inhibitory effect sets in (pH of 7.4 (neutral)) | concentration required to trigger the inhibitory effect (under acid conditions)
1 | OCC(O)CO [glycerol] | above 25 % by weight | above 30 % by weight | 
2 | OC[C@@H](O)[C@@H](O)[C@H](O)[C@@H](O)CO [sorbitol] |  | identical | 40 % by weight
